The source of these data is patent US4232040A, “Compositions for and a method of preventing diabetic complications” (Syntex (U.S.A.) Inc., priority 1978, dated 1980).

One assay concerns the target T1, Aldose reductase (Oryctolagus cuniculus, UniProt P15122).
T1 construct: Aldose reductase is isolated by homogenizing the lens in 3 volumes of water; from tissue; host or cells: lens of mature New Zealand rabbits
Put plainly: Aldose reductase inhibition in vitro (rabbit lens enzyme, glyceraldehyde substrate, loss of absorbance at 340 millimicrons). Type of assay: biochemical, New Zealand rabbit. The settings on record: 2 min, Table I, relative to non-inhibited control (0%); for inhibition at 1 µM: molar concentration of xanthone compound 1 × 10^-6; for inhibition at 100 µM: molar concentration of xanthone compound 1 × 10^-4; for inhibition at 10 µM: molar concentration of xanthone compound 1 × 10^-5. Here is the method: In brief, a solution of the enzyme is added to an appropriately buffered solution containing glyceraldehyde. The loss of ultra violet absorbance at 340 millimicrons is indicative of the rate of reaction of the aldehyde with the enzyme as previously reported by Hayman and Kinoshita, (J. Biol. Chem: 240, 877, (1965)).
Fifty lenses are obtained from mature, New Zealand, rabbits and are immediately frozen on dry ice. Aldose reductase is isolated by homogenizing the lens in 3 volumes of water for 30 seconds in a Waring blender followed by centrifugation at 10,000 xg for 15 minutes to remove insoluble material. Saturated ammonium sulfate is added to the supernatant fluid to 40% saturation. The suspension is centrifuged after 15 minutes, and the supernatant liquid recovered. Additional protein is removed by increasing the ammonium sulfate concentration to 50%, and centrifuging the mixture. Aldose reductase is precipitated from the 50% saturated solution by the addition of powdered ammonium sulfate to 75% saturation and is recovered by centrifugation. The precipitated enzyme is assayed by following the ultraviolet absorbance at 340 millimicrons after dissolving the enzyme in 0.05 M sodium chloride. The enzyme (0.50 ml) is added to a quartz cuvette containing phosphate buffer (0.067 M, pH 6.0), NADPH (2×10^-5 M), and water to a final volume of 3 ml and the cuvette inserted in a conventional ultra-violet spectrometer. The reaction is started by the addition of substrate (glyceraldehyde) to the contents of the cuvette and is followed by the determination of loss of absorbance at 340 millimicrons for 2 minutes at 37° C. The reaction rate observed is usually linear for at least 5 minutes.
All results are shown in Tables I, II, and III as % inhibition, i.e. based on a non-inhibited control sample, no inhibition, 0%.

Another assay has as its system lens aldose reductase. Particulars: in vitro studies; cited from earlier work.

Broadly, the inhibition is the drop in the measured response relative to a control, in per cent. A high value points to a response far below the control.

`O=C(O)c1ccc2oc3ccc(S(=O)(=O)O)cc3c(=O)c2c1` [H 3 H]: at Aldose reductase, the inhibition at 1 µM is 0%.

On Aldose reductase, `CC(C)CN(C)S(=O)(=O)c1ccc2oc3ccc(C(=O)O)cc3c(=O)c2c1` had an inhibition at 100 µM of 95%, an inhibition at 10 µM of 75% and an inhibition at 1 µM of 25%.

At Aldose reductase, `CN(C)S(=O)(=O)c1ccc2oc3ccc(C(=O)N(CCO)CCO)cc3c(=O)c2c1` showed an inhibition at 100 µM of 86%, an inhibition at 10 µM of 64% and an inhibition at 1 µM of 29%.

For the molecule `C[C@@H]1O[C@@H](Oc2c(-c3cc(O)c(O)c(O)c3)oc3cc(O)cc(O)c3c2=O)[C@H](O)[C@H](O)[C@H]1O` [myrecetrin], the “inhibition of lens aldose reductase” value in the assay with lens aldose reductase was “among the most potent”.

In the case of `C[C@@H]1O[C@@H](Oc2c(-c3ccc(O)c(O)c3)oc3cc(O)cc(O)c3c2=O)[C@H](O)[C@H](O)[C@H]1O` [quercetrin], the “inhibition of lens aldose reductase” value with lens aldose reductase is listed as “among the most potent”.

At Aldose reductase, `CN(C)S(=O)(=O)c1ccc2oc3ccc(C(=O)O)cc3c(=O)c2c1` yielded an inhibition at 100 µM of 94%, an inhibition at 10 µM of 87% and an inhibition at 1 µM of 67%.

As for `O=c1c(O)c(-c2ccc(O)c(O)c2)oc2cc(O)cc(O)c12` [quercetin], in the assay on lens aldose reductase, the “inhibition of lens aldose reductase” value is “among the most potent”.
